US6498253B1, “Acylated aminophenylsulfonylureas, processes for their preparation and their use as herbicides and plant growth regulators” (priority 1994, dated 2002)

How the values were obtained:
[1] = system: Sinapis alba, Chrysanthemum segetum, Avena sativa, Stellaria media, Alopecurus myosuroides and Lolium multiflorum; experiment: Herbicidal action, pre-emergence (greenhouse pot test); type: in vivo; details: applied pre-emergence, 0.3 kg and less of active substance per hectare; rated visually after 3 to 4 weeks vs untreated controls
From the text: Seeds or pieces or rhizome of mono- and dicotyledon weed plants were laid out in sandy loam soil in plastic pots and covered with soil. The compounds according to the invention, formulated in the form of wettable powders or emulsion concentrates, were then applied to the surface of the covering soil as an aqueous suspension or emulsion in various dosages, with an amount of water applied, when converted, of 600 to 800 l/ha.
After the treatment, the pots were placed in a greenhouse and kept under good growth conditions for the weeds. The plant damage or emergence damage was rated visually after emergence of the test plants after a test period of 3 to 4 weeks in comparison with untreated controls.

[2] = system: Sinapis alba, Stellaria media, Alopecurus myosuroides and Lolium multiflorum, Chrysanthemum segetum and Avena sativa; experiment: Herbicidal action, post-emergence (greenhouse pot test); type: in vivo; details: applied postemergence in three-leaf stage, 0.3 kg or less of active substance per hectare; rated visually after about 3 to 4 weeks vs untreated controls
Experimental: Seeds or pieces of rhizome of mono- and dicotyledon weeds were laid out in sandy loam soil in plastic pots, covered with soil and grown in a greenhouse under good growth conditions. Three weeks after sowing, the test plants were treated in the three-leaf stage.
The compounds according to the invention, formulated as wettable powders or as emulsion concentrates, were sprayed onto the green parts of plants in various dosages with an amount of water applied of, when converted, 600 to 800 l/ha, and after the test plants had stood in a greenhouse for about 3 to 4 weeks under optimum growth conditions, the action of the preparations was rated visually in comparison with untreated controls. The compositions according to the invention also show a good herbicidal activity against a broad spectrum of economically important graminaceous weeds and broad-leafed weeds when applied post-emergence.

For `COC(=O)Nc1ccc(C(=O)N(C)C)c(S(=O)(=O)[N-]C(=O)Nc2nc(Cl)cc(OC)n2)c1.[Na+]` [22 from Table 2], the “herbicidal action, pre-emergence” value [1] was “very good herbicidal action”.

With `COc1cc(OC)nc(NC(=O)NS(=O)(=O)c2cc(NC=O)ccc2C(=O)N(C)C)n1` [8 from Table 1] the “herbicidal action, post-emergence” value [2] was “very good herbicidal action” and the “herbicidal action, pre-emergence” value [1] was “very good herbicidal action”.

In the case of `COC(=O)Nc1ccc(C(=O)N(C)C)c(S(=O)(=O)NC(=O)Nc2nc(OC)cc(OC)n2)c1` [53 from Table 1], the “herbicidal action, post-emergence” value [2] is reported as “very good herbicidal action” and the “herbicidal action, pre-emergence” value [1] is reported as “very good herbicidal action”.

With `CCC(=O)Nc1ccc(C(=O)N(C)C)c(S(=O)(=O)NC(=O)Nc2nc(OC)cc(OC)n2)c1` [22 from Table 1] the “herbicidal action, post-emergence” value [2] was “very good herbicidal action” and the “herbicidal action, pre-emergence” value [1] was “very good herbicidal action”.

In the case of `COc1cc(OC)nc(NC(=O)NS(=O)(=O)c2cc(NC(=O)C(C)C)ccc2C(=O)N(C)C)n1` [25 from Table 1], the “herbicidal action, post-emergence” value [2] is reported as “very good herbicidal action” and the “herbicidal action, pre-emergence” value [1] is reported as “very good herbicidal action”.

In the case of `COc1cc(OC)nc(NC(=O)[N-]S(=O)(=O)c2cc(NC(=O)C(C)C)ccc2C(=O)N(C)C)n1.[Na+]` [Example 16 from Table 2], the “herbicidal action, post-emergence” value [2] is reported as “very good herbicidal action”.

In the case of `COC(=O)Nc1ccc(C(=O)N(C)C)c(S(=O)(=O)[N-]C(=O)Nc2nc(Cl)cc(OC)n2)c1.[Na+]` [Example 22 from Table 2], the “herbicidal action, post-emergence” value [2] is reported as “very good herbicidal action”.

With `COc1cc(OC)nc(NC(=O)NS(=O)(=O)c2cc(NC(=O)C(C)(C)C)ccc2C(=O)N(C)C)n1` [30 from Table 1] the “herbicidal action, post-emergence” value [2] was “very good herbicidal action” and the “herbicidal action, pre-emergence” value [1] was “very good herbicidal action”.

With `COc1cc(OC)nc(NC(=O)NS(=O)(=O)c2cc(NC(=O)OCCCl)ccc2C(=O)N(C)C)n1` [65 from Table 1] the “herbicidal action, post-emergence” value [2] was “very good herbicidal action” and the “herbicidal action, pre-emergence” value [1] was “very good herbicidal action”.

With `COC(=O)Nc1ccc(C(=O)N(C)C)c(S(=O)(=O)[N-]C(=O)Nc2nc(C)nc(OC)n2)c1.[Na+]` [Example 20 from Table 2] the “herbicidal action, post-emergence” value [2] was “very good herbicidal action”.

In the case of `CCNC(=O)Nc1ccc(C(=O)N(C)C)c(S(=O)(=O)NC(=O)Nc2nc(OC)cc(OC)n2)c1` [72 from Table 1], the “herbicidal action, post-emergence” value [2] is reported as “very good herbicidal action” and the “herbicidal action, pre-emergence” value [1] is reported as “very good herbicidal action”.

For `CCOC(=O)Nc1ccc(C(=O)N(C)C)c(S(=O)(=O)NC(=O)Nc2nc(OC)cc(OC)n2)c1` [59 from Table 1], the “herbicidal action, post-emergence” value [2] was “very good herbicidal action” and the “herbicidal action, pre-emergence” value [1] was “very good herbicidal action”.

For `COc1cc(OC)nc(NC(=O)[N-]S(=O)(=O)c2cc(NC(C)=O)ccc2C(=O)N(C)C)n1.[Na+]` [Example 7 from Table 2], the “herbicidal action, post-emergence” value [2] was “very good herbicidal action”.

With `COc1cc(C)nc(NC(=O)NS(=O)(=O)c2cc(NC(=O)C(F)(F)F)ccc2C(=O)N(C)C)n1` [40 from Table 1] the “herbicidal action, post-emergence” value [2] was “very good herbicidal action” and the “herbicidal action, pre-emergence” value [1] was “very good herbicidal action”.

With `COc1cc(OC)nc(NC(=O)NS(=O)(=O)c2cc(NC=O)ccc2C(=O)N(C)C)n1.[Na]` [Example 1 from Table 2, N-[(4,6-dimethoxypyrimidin-2-yl)-aminocarbonyl]-2-dimethylaminocarbonyl-5-formylamino-benzenesulfonamide sodium salt] the “herbicidal action, post-emergence” value [2] was “very good herbicidal action”.

In the case of `COc1cc(OC)nc(NC(=O)[N-]S(=O)(=O)c2cc(NC=O)ccc2C(=O)N(C)C)n1.[Na+]` [1 from Table 2], the “herbicidal action, pre-emergence” value [1] is reported as “very good herbicidal action”.

With `COc1cc(OC)nc(NC(=O)NS(=O)(=O)c2cc(NS(C)(=O)=O)ccc2C(=O)N(C)C)n1` [77 from Table 1] the “herbicidal action, post-emergence” value [2] was “very good herbicidal action” and the “herbicidal action, pre-emergence” value [1] was “very good herbicidal action”.

For `COc1cc(OC)nc(NC(=O)[N-]S(=O)(=O)c2cc(NC(C)=O)ccc2C(=O)N(C)C)n1.[Na+]` [7 from Table 2], the “herbicidal action, pre-emergence” value [1] was “very good herbicidal action”.

In the case of `COC(=O)Nc1ccc(C(=O)N(C)C)c(S(=O)(=O)[N-]C(=O)Nc2nc(C)nc(OC)n2)c1.[Na+]` [20 from Table 2], the “herbicidal action, pre-emergence” value [1] is reported as “very good herbicidal action”.

For `CCOC(=O)Nc1ccc(C(=O)N(C)C)c(S(=O)(=O)[N-]C(=O)Nc2nc(OC)cc(OC)n2)c1.[Na+]` [26 from Table 2], the “herbicidal action, pre-emergence” value [1] was “very good herbicidal action”.

With `CCC(=O)Nc1ccc(C(=O)N(C)C)c(S(=O)(=O)NC(=O)Nc2nc(OC)cc(OC)n2)c1` the melting point was 135 to 140 °C (dec.).

In the case of `CCC(=O)Nc1ccc(C(=O)N(C)C)c(S(=O)(=O)NC(=O)Nc2nc(OC)cc(OC)n2)c1.[Na]` [Example 12 from Table 2, N-[(4,6-dimethoxypyrimidin-2-yl)-aminocarbonyl]-2-dimethylaminocarbonyl-5-propionylamino-benzenesulfonamide sodium salt], the melting point is reported as 212 °C (dec.) and the “herbicidal action, post-emergence” value [2] is reported as “very good herbicidal action”.

For `CCN(C)C(=O)c1ccc(NC=O)cc1S(=O)(=O)NC(=O)Nc1nc(OC)cc(OC)n1` [116 from Table 1], the “herbicidal action, post-emergence” value [2] was “very good herbicidal action” and the “herbicidal action, pre-emergence” value [1] was “very good herbicidal action”.

In the case of `COc1cc(OC)nc(NC(=O)[N-]S(=O)(=O)c2cc(NC(=O)C(F)(F)F)ccc2C(=O)N(C)C)n1.[Na+]` [Example 17 from Table 2], the “herbicidal action, post-emergence” value [2] is reported as “very good herbicidal action”.

For `COc1cc(OC)nc(NC(=O)NS(=O)(=O)c2cc(NC(C)=O)ccc2C(=O)N(C)C)n1` [15 from Table 1], the “herbicidal action, post-emergence” value [2] was “very good herbicidal action” and the “herbicidal action, pre-emergence” value [1] was “very good herbicidal action”.

In the case of `COC(=O)Nc1ccc(C(=O)N(C)C)c(S(=O)(=O)NC(=O)Nc2nc(OC)cc(OC)n2)c1.[Na]` [Example 21 from Table 2, N-[(4,6-dimethoxypyrimidin-2-yl)-aminocarbonyl]-2-dimethylaminocarbonyl-5-methoxycarbonylamino-benzenesulfonamide sodium salt], the melting point is reported as 187 to 191 °C (dec.) and the “herbicidal action, post-emergence” value [2] is reported as “very good herbicidal action”.

For `COc1nc(NC(=O)NS(=O)(=O)c2cc(NC(=O)C(F)(F)F)ccc2C(=O)N(C)C)nc(OC)n1` [44 from Table 1], the “herbicidal action, post-emergence” value [2] was “very good herbicidal action” and the “herbicidal action, pre-emergence” value [1] was “very good herbicidal action”.

With `CCOC(=O)Nc1ccc(C(=O)N(C)C)c(S(=O)(=O)[N-]C(=O)Nc2nc(OC)cc(OC)n2)c1.[Na+]` [Example 26 from Table 2] the “herbicidal action, post-emergence” value [2] was “very good herbicidal action”.

With `COC(=O)Nc1ccc(C(=O)N(C)C)c(S(=O)(=O)NC(=O)Nc2nc(Cl)cc(OC)n2)c1` [55 from Table 1] the “herbicidal action, post-emergence” value [2] was “very good herbicidal action” and the “herbicidal action, pre-emergence” value [1] was “very good herbicidal action”.

For `COc1cc(OC)nc(NC(=O)NS(=O)(=O)c2cc(NC(=O)C3CC3)ccc2C(=O)N(C)C)n1` [115 from Table 1], the “herbicidal action, post-emergence” value [2] was “very good herbicidal action” and the “herbicidal action, pre-emergence” value [1] was “very good herbicidal action”.

For `COc1cc(OC)nc(NC(=O)[N-]S(=O)(=O)c2cc(NC(=O)C(C)C)ccc2C(=O)N(C)C)n1.[Na+]` [16 from Table 2], the “herbicidal action, pre-emergence” value [1] was “very good herbicidal action”.

For `CNS(=O)(=O)Nc1ccc(C(=O)N(C)C)c(S(=O)(=O)NC(=O)Nc2nc(OC)cc(OC)n2)c1` [87 from Table 1], the “herbicidal action, post-emergence” value [2] was “very good herbicidal action” and the “herbicidal action, pre-emergence” value [1] was “very good herbicidal action”.

For `COC(=O)Nc1ccc(C(=O)N(C)C)c(S(=O)(=O)[N-]C(=O)Nc2nc(OC)cc(OC)n2)c1.[Na+]` [21 from Table 2], the “herbicidal action, pre-emergence” value [1] was “very good herbicidal action”.

With `COC(=O)Nc1ccc(C(=O)N(C)C)c(S(=O)(=O)NC(=O)Nc2nc(C)nc(OC)n2)c1` [58 from Table 1] the “herbicidal action, post-emergence” value [2] was “very good herbicidal action” and the “herbicidal action, pre-emergence” value [1] was “very good herbicidal action”.

For `COc1cc(OC)nc(NC(=O)[N-]S(=O)(=O)c2cc(NC(=O)C(F)(F)F)ccc2C(=O)N(C)C)n1.[Na+]` [17 from Table 2], the “herbicidal action, pre-emergence” value [1] was “very good herbicidal action”.
